Results reported in patent US20170190671A1, “BIS(ARYL)CATECHOL DERIVATIVES AS HERBICIDES” (E I DU PONT DE NEMOURS AND COMPANY, priority 2014, published 2017).

Columns and labels:
Assay type in all cases: in vivo
[1] = tested on: barnyardgrass (Echinochloa crus-galli); test: Test B flooded paddy; conditions: Echinochloa crus-galli, 336 h; 250 g ai/ha, Flood, 13 to 15 days, scale 0 (no effect) to 100 (complete control); read-out: Plant response rating, Barnyardgrass
Procedure, shortened: (§1)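 Under a constant 3 cm flood, test compounds went directly into the paddy water. Following 13 to 15 days of greenhouse growth, treated species and controls were compared by eye.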

[2] = tested on: ducksalad (Heteranthera limosa); test: Test B flooded paddy; conditions: Heteranthera limosa, 336 h; 250 g ai/ha, Flood, 13 to 15 days, scale 0 (no effect) to 100 (complete control); read-out: Plant response rating, Ducksalad
Procedure, shortened: as §1

[3] = tested on: rice (Oryza sativa); test: Test B flooded paddy; conditions: Oryza sativa, 336 h; 250 g ai/ha, Flood, 13 to 15 days, scale 0 (no effect) to 100 (complete control); read-out: Plant response rating, Rice
Procedure, shortened: as §1

[4] = tested on: sedge, umbrella (small-flower umbrella sedge, Cyperus difformis); test: Test B flooded paddy; conditions: Cyperus difformis, 336 h; 250 g ai/ha, Flood, 13 to 15 days, scale 0 (no effect) to 100 (complete control); read-out: Plant response rating, Sedge, Umbrella
Procedure, shortened: as §1

[5] = tested on: Italian ryegrass (Lolium multiflorum); test: Test A preemergence; conditions: Lolium multiflorum, pre-emergence, 240 h, 0 to 100 scale (0 no effect, 100 complete control), read-out: Ryegrass, Italian plant response rating
Procedure, shortened: (§2)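 Pre- and postemergence greenhouse screen. Soil: loam + sand. Spray carrier: solvent mixture, non-phytotoxic, with surfactant. Post timing at 1–2 leaves, height 2–10 cm. Readout: visual injury on a 0–100 scale roughly 10 days after application, untreated plants as reference.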

[6] = tested on: barnyardgrass (Echinochloa crus-galli); test: Test A preemergence; conditions: Echinochloa crus-galli, pre-emergence, 240 h
Procedure, shortened: as §2

[7] = tested on: giant foxtail (Setaria faberii); test: Test A preemergence; conditions: Setaria faberi, pre-emergence, 240 h, 0 to 100 scale (0 no effect, 100 complete control), read-out: Foxtail, Giant plant response rating
Procedure, shortened: as §2

[8] = tested on: kochia (Kochia scoparia); test: Test A preemergence; conditions: Bassia scoparia, pre-emergence, 240 h, 0 to 100 scale (0 no effect, 100 complete control), read-out: Kochia plant response rating
Procedure, shortened: as §2

[9] = tested on: pigweed (Amaranthus retroflexus); test: Test A preemergence; conditions: Amaranthus retroflexus, pre-emergence, 240 h, 0 to 100 scale (0 no effect, 100 complete control), read-out: Pigweed plant response rating
Procedure, shortened: as §2

[10] = tested on: ragweed (common ragweed, Ambrosia elatior); test: Test A preemergence; conditions: Ambrosia artemisiifolia, pre-emergence, 240 h, 0 to 100 scale (0 no effect, 100 complete control), read-out: Ragweed plant response rating
Procedure, shortened: as §2

[11] = tested on: Italian ryegrass (Lolium multiflorum); test: Test A postemergence; conditions: Lolium multiflorum, post-emergence, 240 h, 0 to 100 scale, read-out: Plant response rating, Ryegrass, Italian
Procedure, shortened: as §2

[12] = tested on: barnyardgrass (Echinochloa crus-galli); test: Test A postemergence; conditions: Echinochloa crus-galli, post-emergence, 240 h, 0 to 100 scale, read-out: Plant response rating, Barnyardgrass
Procedure, shortened: as §2

[13] = tested on: blackgrass (Alopecurus myosuroides); test: Test A postemergence; conditions: Alopecurus myosuroides, post-emergence, 240 h, 0 to 100 scale, read-out: Plant response rating, Blackgrass
Procedure, shortened: as §2

[14] = tested on: corn (Zea mays); test: Test A postemergence; conditions: Zea mays, post-emergence, 240 h, 0 to 100 scale
Procedure, shortened: as §2

[15] = tested on: galium (catchweed bedstraw, Galium aparine); test: Test A postemergence; conditions: Galium, post-emergence, 240 h, 0 to 100 scale, read-out: Plant response rating, Galium
Procedure, shortened: as §2

[16] = tested on: giant foxtail (Setaria faberii); test: Test A postemergence; conditions: Setaria faberi, post-emergence, 240 h, 0 to 100 scale, read-out: Plant response rating, Foxtail, Giant
Procedure, shortened: as §2

[17] = tested on: kochia (Kochia scoparia); test: Test A postemergence; conditions: Bassia scoparia, post-emergence, 240 h, 0 to 100 scale, read-out: Plant response rating, Kochia
Procedure, shortened: as §2

[18] = tested on: pigweed (Amaranthus retroflexus); test: Test A postemergence; conditions: Amaranthus retroflexus, post-emergence, 240 h, 0 to 100 scale, read-out: Plant response rating, Pigweed
Procedure, shortened: as §2

[19] = tested on: ragweed (common ragweed, Ambrosia elatior); test: Test A postemergence; conditions: Ambrosia artemisiifolia, post-emergence, 240 h, 0 to 100 scale, read-out: Plant response rating, Ragweed
Procedure, shortened: as §2

[20] = tested on: wheat (Triticum aestivum); test: Test A postemergence; conditions: Triticum aestivum, post-emergence, 240 h, 0 to 100 scale, read-out: Plant response rating, Wheat
Procedure, shortened: as §2

[21] = tested on: kochia (Kochia scoparia); test: Test C postemergence; conditions: Bassia scoparia, post-emergence, Postemergence, scale 0 to 100, read-out: Plant response rating, Kochia
Description: (§3) Seeds of plant species selected from blackgrass (Alopecurus myosuroides), Italian ryegrass (Lolium multiflorum), winter wheat (Triticum aestivum), galium (catchweed bedstraw, Galium aparine), corn (Zea mays), large (Lg) crabgrass (Digitaria sanguinalis), giant foxtail (Setaria faberii), johnsongrass (Sorghum halepense), lambsquarters (Chenopodium album), morningglory (Ipomoea coccinea), yellow nutsedge (Cyperus esculentus), pigweed (Amaranthus retroflexus), ragweed (common ragweed, Ambrosia elatior), soybean (Glycine max), barnyardgrass (Echinochloa crus-galli), oilseed rape (Brassica napus), waterhemp (common waterhemp, Amaranthus rudis), and velvetleaf (Abutilon theophrasti) were planted into a blend of loam soil and sand and treated preemergence with test chemicals formulated in a non-phytotoxic solvent mixture which included a surfactant.
(§4) At the same time, plants selected from these crop and weed species and also chickweed (common chickweed, Stellaria media), kochia (Kochia scoparia), and wild oat (Avena fatua), were planted in pots containing Redi-Earth® planting medium (Scotts Company, 14111 Scottslawn Road, Marysville, Ohio 43041) comprising spaghnum peat moss, vermiculite, wetting agent and starter nutrients and treated with postemergence applications of test chemicals formulated in the same manner. Plants ranged in height from 2 to 18 cm (1- to 4-leaf stage) for postemergence treatments. Treated plants and controls were maintained in a greenhouse for 13 to 15 days, after which time all species were compared to controls and visually evaluated. Plant response ratings, summarized in Table C, are based on a scale of 0 to 100 where 0 is no effect and 100 is complete control. A dash (-) response means no test result.

[22] = tested on: pigweed (Amaranthus retroflexus); test: Test C postemergence; conditions: Amaranthus retroflexus, post-emergence, 336 h, Postemergence, scale 0 to 100, read-out: Plant response rating, Pigweed
Description: as §3, §4

N#Cc1cccc(Oc2ncc(Cl)cn2)c1Oc1ccc(Cl)cn1 [Compound 16, 2-[(5-chloro-2-pyridinyl)oxy]-3-[(5-chloro-2-pyrimidinyl)oxy]benzonitrile]
pest or weed control at 250 g/ha [1]: 20% | pest or weed control at 250 g/ha [2]: 90% | plant injury at 250 g/ha [3]: 40% | pest or weed control at 250 g/ha [4]: 95% | pest or weed control at 31 g/ha ([5]; 31 g ai/ha): 0% | pest or weed control at 125 g/ha ([5]; 125 g ai/ha): 20% | pest or weed control at 31 g/ha ([6]; 31 g ai/ha, 0 to 100 scale (0 no effect, 100 complete control), read-out: Barnyardgrass plant response rating): 30% | pest or weed control at 125 g/ha ([6]; 125 g ai/ha, 0 to 100 scale, read-out: Plant response rating, Barnyardgrass): 70% | pest or weed control at 31 g/ha ([7]; 31 g ai/ha): 90% | pest or weed control at 125 g/ha ([7]; 125 g ai/ha): 100% | pest or weed control at 31 g/ha ([8]; 31 g ai/ha): 30% | pest or weed control at 125 g/ha ([8]; 125 g ai/ha): 90% | pest or weed control at 31 g/ha ([9]; 31 g ai/ha): 100% | pest or weed control at 125 g/ha ([9]; 125 g ai/ha): 100% | pest or weed control at 31 g/ha ([10]; 31 g ai/ha): 0% | pest or weed control at 125 g/ha ([10]; 125 g ai/ha): 0% | pest or weed control at 31 g/ha ([11]; 31 g ai/ha): 40% | pest or weed control at 125 g/ha ([11]; 125 g ai/ha): 80% | pest or weed control at 31 g/ha ([12]; 31 g ai/ha): 10% | pest or weed control at 125 g/ha ([12]; 125 g ai/ha): 70% | pest or weed control at 31 g/ha ([13]; 31 g ai/ha): 50% | pest or weed control at 125 g/ha ([13]; 125 g ai/ha): 70% | Corn plant response rating (crop injury, 0 = no effect, 100 = complete kill) at 31 g/ha ([14]; 31 g ai/ha): 0% | Corn plant response rating (crop injury, 0 = no effect, 100 = complete kill) at 125 g/ha ([14]; 125 g ai/ha): 20% | pest or weed control at 31 g/ha ([15]; 31 g ai/ha): 90% | pest or weed control at 125 g/ha ([15]; 125 g ai/ha): 90% | pest or weed control at 31 g/ha ([16]; 31 g ai/ha): 70% | pest or weed control at 125 g/ha ([16]; 125 g ai/ha): 80% | pest or weed control at 31 g/ha ([17]; 31 g ai/ha): 50% | pest or weed control at 125 g/ha ([17]; 125 g ai/ha): 100% | pest or weed control at 31 g/ha ([18]; 31 g ai/ha): 100% | pest or weed control at 125 g/ha ([18]; 125 g ai/ha): 100% | pest or weed control at 31 g/ha ([19]; 31 g ai/ha): 10% | pest or weed control at 125 g/ha ([19]; 125 g ai/ha): 30% | plant injury at 31 g/ha ([20]; 31 g ai/ha): 0% | plant injury at 125 g/ha ([20]; 125 g ai/ha): 20% | pest or weed control at 16 g/ha ([21]; 16 g ai/ha): 90% | pest or weed control at 31 g/ha ([21]; 31 g ai/ha): 90% | pest or weed control at 62 g/ha ([21]; 62 g ai/ha): 90% | pest or weed control at 125 g/ha ([21]; 125 g ai/ha): 95% | pest or weed control at 31 g/ha ([22]; 31 g ai/ha): 80% | pest or weed control at 62 g/ha ([22]; 62 g ai/ha): 85% | pest or weed control at 125 g/ha ([22]; 125 g ai/ha): 100%
